Laboratory results taken from patent publication US20190008160A1, “BACILLUS THURINGIENSIS SUBSP. KURSTAKI AND BACILLUS THURINGIENSIS SUBSP. AIZAWAI COMBINATION FORMULATIONS” (Valent BioSciences Corporation, priority 2015, published 2019).

Columns and labels:
[1] = test system: insect species with known resistance to chlorantraniliprole; assay: Example 6 plot study, yield with insect species resistant to chlorantraniliprole; type: in vivo; settings: rate 30.9 g a.i/ha
Procedure: (§1) A study was conducted to determine the effect that a synergistic weight ratio of Bacillus thuringiensis subsp. kurstaki and Bacillus thuringiensis subsp. aizawai would have on insect species with known resistance to the commonly used insecticide, chlorantraniliprole. Prevathon™ (available from DuPont™) is a 5% suspension concentrate of chlorantraniliprole and was used as the source of chlorantraniliprole in the following two studies. Sympatico™ emulsifiable suspension concentrate (available from Valent BioSciences Corporation) was used as the source of Bacillus thuringiensis subsp. aizawai and Bacillus thuringiensis kurstaki. Sympatico™ contains about a 60:40 weight ratio of Bacillus thuringiensis subsp. kurstaki fermentation solids, spores and toxins to Bacillus thuringiensis subsp. aizawai fermentation solids, spores and toxins. The plots were planted with cabbage and naturally infested with populations of diamondback moth (Plutella xylostella) and cabbage cluster caterpillar (Crocidolomia pavonana) that were known to be resistant to chlorantraniliprole.
Another study was conducted to determine the effect that a synergistic weight ratio of Bacillus thuringiensis subsp. kurstaki and Bacillus thuringiensis subsp. aizawai would have on insect species with known resistance to the commonly used insecticide, chlorantraniliprole.

[2] = test system: diamondback moth (Plutella xylostella) and cabbage cluster caterpillar (Crocidolomia pavonana) known to be resistant to chlorantraniliprole; assay: Example 5 cabbage plot study, yield under chlorantraniliprole-resistant pest infestation; type: in vivo, Plutella xylostella; Crocidolomia pavonana (on cabbage); settings: rate 30.9 g/ha; cabbage plots
Procedure: as §1

Compound `CNC(=O)c1cc(Cl)cc(C)c1NC(=O)c1cc(Br)nn1-c1ncccc1Cl` [Chlorantraniliprole] has a Yield [1] of 88.3 kg/plot and a Yield [2] of 67.0 kg/plot.
